Reference: patent US9765105B2, “Macrolide compound” (Pulike Biological Engineering, Inc., priority 2013, dated 2017)

Tests used:
Test in all cases: in vitro susceptibility, MIC by mini broth dilution
Assay type in all cases: cell-based
[1] = system: Staphylococcus aureus CVCC26003; conditions: strain CVCC26003
Summary of the method: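 S. aureus CVCC26003 was revived and subcultured twice, 20 h each at 35° C, on solid medium, then diluted 1:200 in CAMHB liquid medium. Compounds received an 11-step two-fold DMSO dilution in parallel duplicate rows. MIC was read by mini broth dilution per NCCLS guidance.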

[2] = system: Streptococcus equines CVCC556; conditions: strain CVCC556
Summary of the method: (§1)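 Broth microdilution MIC, NCCLS method: 11-point two-fold DMSO compound series, duplicate rows, well 12 as control. Inoculum from 20 h, 35° C plate cultures, diluted 1:200 in broth.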

[3] = system: Pasteurella multocida CVCC399; conditions: strain CVCC399
Summary of the method: as §1

[4] = system: Haemophilus parasuis
Summary of the method: as §1

[5] = system: Actinobacillus pleuropneumoniae CVCC262; conditions: strain CVCC262
Summary of the method: as §1

MIC values, Staphylococcus aureus CVCC26003 [1]	MIC values, Streptococcus equines CVCC556 [2]	MIC values, Pasteurella multocida CVCC399 [3] [ug/mi]	MIC values, Haemophilus parasuis [4]	MIC values, Actinobacillus pleuropneumoniae CVCC262 [5] [ug/mi]	Compound
2 ug/mi	0.5 ug/mi	2	2 ug/mi	2	CC[C@H]1OC(=O)[C@H](C)[C@@H](O[C@H]2C[C@@](C)(OC)[C@](O)(CNc3ccccc3F)[C@H](C)O2)[C@H](C)[C@@H](O[C@@H]2O[C@H](C)C[C@H](N(C)C)[C@H]2O)[C@](C)(O)C[C@@H](C)NC[C@H](C)[C@@H](O)[C@]1(C)O [syzx-95, (2R,3S,4R,5S,8R,10R,11R,12S,13S,14R)-13-[(2,6-dideoxy-3-C-methyl-3-O-methyl-4-C-[(2-fluoro-phenyl-amino)-methyl]-α-L-ribopyranosyl)oxy]-2-ethyl-3,4,10-trihydroxy-3,5,8,10,12,14-hexamethyl-11-[[3,4,6-trideoxy-3-(dimethylamino)-β-D-xylo-hexopyranosy]oxy]-1-oxa-7-azacyclopentadecan-15-one]
1 ug/mi	0.25 ug/mi	2	0.5 ug/mi	0.5	CCC1OC(=O)C(C)C(OC2CC(C)(OC)C(O)(CNc3cc(C)ccc3F)C(C)O2)C(C)C(OC2OC(C)CC(N(C)C)C2O)C(C)(O)CC(C)NCC(C)C(O)C1(C)O [syzx-96, (2R,3S,4R,5S,8R,10R,11R,12S,13S,14R)-13-[(2,6-dideoxy-3-C-methyl-3-O-methyl-4-C-[(2-fluoro-5-methylphenyl-amino)-methyl]-α-L-ribopyranosyl)oxy]-2-ethyl-3,4,10-trihydroxy-3,5,8,10,12,14-hexamethyl-11-[[3,4,6-trideoxy-3-(dimethylamino)-β-D-xylo-hexopyranosy]oxy]-1-oxa-7-azacyclopentadecan-15-one]
1 ug/mi	0.5 ug/mi	4	1 ug/mi	128	CC[C@H]1OC(=O)[C@H](C)[C@@H](O[C@H]2C[C@@](C)(OC)[C@](O)(CNc3ccc(Cl)cc3C)[C@H](C)O2)[C@H](C)[C@@H](O[C@@H]2O[C@H](C)C[C@H](N(C)C)[C@H]2O)[C@](C)(O)C[C@@H](C)NC[C@H](C)[C@@H](O)[C@]1(C)O [syzx-97, (2R,3S,4R,5S,8R,10R,11R,12S,13S,14R)-13-[(2,6-dideoxy-3-C-methyl-3-O-methyl-4-C-[(2-methyl-4-chloro-phenyl-amino)-methyl]-α-L-ribopyranosyl)oxy]-2-ethyl-3,4,10-trihydroxy-3,5,8,10,12,14-hexamethyl-11-[[3,4,6-trideoxy-3-(dimethylamino)-β-D-xylo-hexopyranosy]oxy]-1-oxa-7-azacyclopentadecan-15-one]
1 ug/mi	0.25 ug/mi	2	0.5 ug/mi	0.5	CCCCN(C)C[C@]1(O)[C@H](C)O[C@@H](O[C@H]2[C@H](C)[C@@H](O[C@@H]3O[C@H](C)C[C@H](N(C)C)[C@H]3O)[C@](C)(O)C[C@@H](C)NC[C@H](C)[C@@H](O)[C@](C)(O)[C@@H](CC)OC(=O)[C@@H]2C)C[C@@]1(C)OC [syzx-98, (2R,3S,4R,5S,8R,10R,11R,12S,13S,14R)-13-[(2,6-dideoxy-3-C-methyl-3-O-methyl-4-C-[(N-methyl-butyl-amino)-methyl]-α-L-ribopyranosyl)oxy]-2-ethyl-3,4,10-trihydroxy-3,5,8,10,12,14-hexamethyl-11-[[3,4,6-trideoxy-3-(dimethylamino)-β-D-xylo-hexopyranosy]oxy]-1-oxa-7-azacyclopentadecan-15-one]

More lines, now with the values behind:

Compound	MIC values, Staphylococcus aureus CVCC26003 [1]	MIC values, Streptococcus equines CVCC556 [2]	MIC values, Pasteurella multocida CVCC399 [3] [ug/mi]	MIC values, Haemophilus parasuis [4]	MIC values, Actinobacillus pleuropneumoniae CVCC262 [5] [ug/mi]
CC[C@H]1OC(=O)[C@H](C)[C@@H](O[C@H]2C[C@@](C)(OC)[C@](O)(CNc3ccc(C)c(C)c3)[C@H](C)O2)[C@H](C)[C@@H](O[C@@H]2O[C@H](C)C[C@H](N(C)C)[C@H]2O)[C@](C)(O)C[C@@H](C)NC[C@H](C)[C@@H](O)[C@]1(C)O [syzx-84, (2R,3S,4R,5S,8R,10R,11R,12S,13S,14R)-13-[(2,6-dideoxy-3-C-methyl-3-O-methyl-4-C-[(3,4-dimethylphenyl-amino)-methyl]-α-L-ribopyranosyl)oxy]-2-ethyl-3,4,10-trihydroxy-3,5,8,10,12,14-hexamethyl-11-[[3,4,6-trideoxy-3-(dimethylamino)-β-D-xylo-hexopyranosy]oxy]-1-oxa-7-azacyclopentadecan-15-one]	≦0.25 ug/mi	≦0.25 ug/mi	0.25	≦0.25 ug/mi	2
CC[C@H]1OC(=O)[C@H](C)[C@@H](O[C@H]2C[C@@](C)(OC)[C@](O)(CNc3ccc(F)cn3)[C@H](C)O2)[C@H](C)[C@@H](O[C@@H]2O[C@H](C)C[C@H](N(C)C)[C@H]2O)[C@](C)(O)C[C@@H](C)NC[C@H](C)[C@@H](O)[C@]1(C)O [syzx-86, (2R,3S,4R,5S,8R,10R,11R,12S,13S,14R)-13-[(2,6-dideoxy-3-C-methyl-3-O-methyl-4-C-[(5-fluoropyridin-2-yl-amino)-methyl]-α-L-ribopyranosyl)oxy]-2-ethyl-3,4,10-trihydroxy-3,5,8,10,12,14-hexamethyl-11-[[3,4,6-trideoxy-3-(dimethylamino)-β-D-xylo-hexopyranosy]oxy]-1-oxa-7-azacyclopentadecan-15-one]	≦0.25 ug/mi	≦0.25 ug/mi	0.25	≦0.25 ug/mi	2
CC[C@H]1OC(=O)[C@H](C)[C@@H](O[C@H]2C[C@@](C)(OC)[C@](O)(CNCCN3CCCC3)[C@H](C)O2)[C@H](C)[C@@H](O[C@@H]2O[C@H](C)C[C@H](N(C)C)[C@H]2O)[C@](C)(O)C[C@@H](C)NC[C@H](C)[C@@H](O)[C@]1(C)O [syzx-90]	2 ug/mi	0.5 ug/mi	2	2 ug/mi	0.5
CC[C@H]1OC(=O)[C@H](C)[C@@H](O[C@H]2C[C@@](C)(OC)[C@](O)(CNCCc3ccncc3)[C@H](C)O2)[C@H](C)[C@@H](O[C@@H]2O[C@H](C)C[C@H](N(C)C)[C@H]2O)[C@](C)(O)C[C@@H](C)NC[C@H](C)[C@@H](O)[C@]1(C)O [syzx-91, (2R,3S,4R,5S,8R,10R,11R,12S,13S,14R)-13-[(2,6-dideoxy-3-C-methyl-3-O-methyl-4-C-[(2-pyridin-4-yl-ethylamino)-methyl]-α-L-ribopyranosyl)oxy]-2-ethyl-3,4,10-trihydroxy-3,5,8,10,12,14-hexamethyl-11-[[3,4,6-trideoxy-3-(dimethylamino)-β-D-xylo-hexopyranosy]oxy]-1-oxa-7-azacyclopentadecan-15-one]	4 ug/mi	1 ug/mi	2	2 ug/mi	2
CC[C@H]1OC(=O)[C@H](C)[C@@H](O[C@H]2C[C@@](C)(OC)[C@](O)(CNCc3ccccc3F)[C@H](C)O2)[C@H](C)[C@@H](O[C@@H]2O[C@H](C)C[C@H](N(C)C)[C@H]2O)[C@](C)(O)C[C@@H](C)NC[C@H](C)[C@@H](O)[C@]1(C)O [syzx-92, (2R,3S,4R,5S,8R,10R,11R,12S,13S,14R)-13-[(2,6-dideoxy-3-C-methyl-3-O-methyl-4-C-[(2-fluorobenzyl-amino)-methyl]-α-L-ribopyranosyl)oxy]-2-ethyl-3,4,10-trihydroxy-3,5,10,12,14-hexamethyl-11-[[3,4,6-trideoxy-3-(dimethylamino)-β-D-xylo-hexopyranosy]oxy]-1-oxa-7-azacyclopentadecan-15-one]	1 ug/mi	0.25 ug/mi	2	0.5 ug/mi	0.5
CC[C@H]1OC(=O)[C@H](C)[C@@H](O[C@H]2C[C@@](C)(OC)[C@](O)(CNCC3CCNCC3)[C@H](C)O2)[C@H](C)[C@@H](O[C@@H]2O[C@H](C)C[C@H](N(C)C)[C@H]2O)[C@](C)(O)C[C@@H](C)NC[C@H](C)[C@@H](O)[C@]1(C)O [syzx-93]	32 ug/mi	1 ug/mi	64	8 ug/mi	16
CC[C@H]1OC(=O)[C@H](C)[C@@H](O[C@H]2C[C@@](C)(OC)[C@](O)(CNc3cc(Cl)ccc3C)[C@H](C)O2)[C@H](C)[C@@H](O[C@@H]2O[C@H](C)C[C@H](N(C)C)[C@H]2O)[C@](C)(O)C[C@@H](C)NC[C@H](C)[C@@H](O)[C@]1(C)O [syzx-94, (2R,3S,4R,5S,8R,10R,11R,12S,13S,14R)-13-[(2,6-dideoxy-3-C-methyl-3-O-methyl-4-C-[(5-chloro-o-methylphenyl-amino)-methyl]-α-L-ribopyranosyl)oxy]-2-ethyl-3,4,10-trihydroxy-3,5,8,10,12,14-hexamethyl-11-[[3,4,6-trideoxy-3-(dimethylamino)-β-D-xylo-hexopyranosy]oxy]-1-oxa-7-azacyclopentadecan-15-one]	1 ug/mi	0.25 ug/mi	2	0.5 ug/mi	0.5
